According to patent publication US20220153751A1, “BIFUNCTIONAL COMPOUNDS” (BioTheryX, Inc., priority 2018, published 2022):

What was measured:
Assay type in all cases: cell-based
[1] = tested on: TNF-α; experiment: TNF-α inhibition assay, LPS-induced PBMCs / CD14+ monocytes (Meso Scale); conditions: 1 h pretreatment, 100 ng/mL LPS 18-24 h
How it was run: (§1)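 Thawed human PBMCs or CD14+ mobilized peripheral blood monocytes, 200,000 cells/well in RPMI-1640/10% FBS, pretreated with compound or DMSO 1 h, then stimulated with 100 ng/mL LPS for 18-24 h. Supernatant cytokine measured by Meso Scale; % inhibition binned A–D (<50%, 50–70%, 70–90%, ≥90%), fold-change binned A–D (≤0.1, ≤0.5, ≤1, >1).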

[2] = tested on: IL-6; experiment: IL-6 inhibition assay, LPS-induced PBMCs / CD14+ monocytes (Meso Scale); conditions: 1 h pretreatment, 100 ng/mL LPS 18-24 h
How it was run: as §1

[3] = tested on: MOLM-13 cells; experiment: MOLM-13 cell viability assay (CellTiter-Glo); conditions: Homo sapiens, MOLM-13, 72 h, 3 days, read-out: MOLM-13 Cell Viability % DMSO at 1 μM
How it was run: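 MOLM-13 cells at 2500 cells/well were exposed to compound for 3 days at 37 °C. Viability was read by CellTiter-Glo luminescence and expressed as % of DMSO control, binned A (<50%), B (50–<70%), C (70–<90%) or D (≥90%).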

[4] = tested on: IL-2; experiment: IL-2 fold-change assay, anti-CD3 stimulated PBMCs (Mesoscale); conditions: PBMC, PBMCs on anti-human CD3, 24 h, fold difference from the DMSO control
Protocol: For the IL-2 analysis, 96 well plates were precoated with 1 μg/mL anti-human CD3 antibody (OK3, eBioscience Inc., San Diego, Calif.). After washing with PBS, the indicated compound was added (50 μL/well) followed by PBMCs diluted at 3-4 million cells/mL (150 μL/well). Plates were incubated for 24 h and the supernatants collected for Mesoscale IL-2 analysis. IL-2 activity is measured as fold difference from the DMSO control.
In Table 6, the % inhibition values are reported as “A”, “B”, “C”, or “D”. “A” represents a % inhibition value of less than 50% (value <50%). “B” represents a % inhibition value of equal to or more than 50% and less than 70% (50%≤value<70%). “C” represents a % inhibition value of equal to or more than 70% and less than 90% (70%≤value<90%). “D” represents a % inhibition value of equal or more than 90% (value ≥90%). In Table 7, the fold-change values are reported as “A”, “B”, “C”, or “D”. “A” represents a fold-change value of equal to or less than 0.1 (value ≤0.1). “B” represents a fold-change value of more than 0.1 and equal to or less than 0.5 (0.1<value≤0.5). “C” represents a fold-change value of more than 0.5 and equal to or less than 1 (0.5<value≤1). “D” represents a fold-change value of more than 1 (value >1).

[5] = target: T1, CK1α (Homo sapiens, UniProt P48729+Q96SW2); experiment: CK1α degradation assay (Western blot, MV-4-11 cells); conditions: MV4-11, 6-8 h
T1 construct: Whole cell extracts were prepared using RIPA buffer; endogenous in cells; host or cells: MV-4-11
T1 sequence (P48729 whole entry): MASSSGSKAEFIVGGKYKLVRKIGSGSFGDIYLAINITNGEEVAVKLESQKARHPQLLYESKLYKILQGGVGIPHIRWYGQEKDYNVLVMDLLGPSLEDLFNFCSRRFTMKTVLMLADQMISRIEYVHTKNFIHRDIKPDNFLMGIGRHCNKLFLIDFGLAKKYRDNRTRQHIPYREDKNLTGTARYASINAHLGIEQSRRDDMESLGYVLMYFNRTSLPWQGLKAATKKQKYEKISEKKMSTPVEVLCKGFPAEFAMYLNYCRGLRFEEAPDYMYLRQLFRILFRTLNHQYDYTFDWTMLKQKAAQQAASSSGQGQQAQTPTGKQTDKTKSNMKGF
T1 sequence (Q96SW2 whole entry): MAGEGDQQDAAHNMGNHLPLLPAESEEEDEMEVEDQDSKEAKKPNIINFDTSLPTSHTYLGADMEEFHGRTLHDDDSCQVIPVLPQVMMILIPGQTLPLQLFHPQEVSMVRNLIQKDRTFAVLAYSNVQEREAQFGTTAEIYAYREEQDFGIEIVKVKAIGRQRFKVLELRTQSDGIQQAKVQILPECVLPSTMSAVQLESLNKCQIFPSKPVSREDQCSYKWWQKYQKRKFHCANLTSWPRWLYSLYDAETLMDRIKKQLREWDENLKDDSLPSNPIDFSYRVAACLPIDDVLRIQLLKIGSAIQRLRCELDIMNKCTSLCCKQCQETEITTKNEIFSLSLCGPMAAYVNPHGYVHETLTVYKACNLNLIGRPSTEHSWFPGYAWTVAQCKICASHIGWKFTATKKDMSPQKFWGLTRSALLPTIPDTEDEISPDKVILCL
T1 sequence (Q16531 whole entry partner): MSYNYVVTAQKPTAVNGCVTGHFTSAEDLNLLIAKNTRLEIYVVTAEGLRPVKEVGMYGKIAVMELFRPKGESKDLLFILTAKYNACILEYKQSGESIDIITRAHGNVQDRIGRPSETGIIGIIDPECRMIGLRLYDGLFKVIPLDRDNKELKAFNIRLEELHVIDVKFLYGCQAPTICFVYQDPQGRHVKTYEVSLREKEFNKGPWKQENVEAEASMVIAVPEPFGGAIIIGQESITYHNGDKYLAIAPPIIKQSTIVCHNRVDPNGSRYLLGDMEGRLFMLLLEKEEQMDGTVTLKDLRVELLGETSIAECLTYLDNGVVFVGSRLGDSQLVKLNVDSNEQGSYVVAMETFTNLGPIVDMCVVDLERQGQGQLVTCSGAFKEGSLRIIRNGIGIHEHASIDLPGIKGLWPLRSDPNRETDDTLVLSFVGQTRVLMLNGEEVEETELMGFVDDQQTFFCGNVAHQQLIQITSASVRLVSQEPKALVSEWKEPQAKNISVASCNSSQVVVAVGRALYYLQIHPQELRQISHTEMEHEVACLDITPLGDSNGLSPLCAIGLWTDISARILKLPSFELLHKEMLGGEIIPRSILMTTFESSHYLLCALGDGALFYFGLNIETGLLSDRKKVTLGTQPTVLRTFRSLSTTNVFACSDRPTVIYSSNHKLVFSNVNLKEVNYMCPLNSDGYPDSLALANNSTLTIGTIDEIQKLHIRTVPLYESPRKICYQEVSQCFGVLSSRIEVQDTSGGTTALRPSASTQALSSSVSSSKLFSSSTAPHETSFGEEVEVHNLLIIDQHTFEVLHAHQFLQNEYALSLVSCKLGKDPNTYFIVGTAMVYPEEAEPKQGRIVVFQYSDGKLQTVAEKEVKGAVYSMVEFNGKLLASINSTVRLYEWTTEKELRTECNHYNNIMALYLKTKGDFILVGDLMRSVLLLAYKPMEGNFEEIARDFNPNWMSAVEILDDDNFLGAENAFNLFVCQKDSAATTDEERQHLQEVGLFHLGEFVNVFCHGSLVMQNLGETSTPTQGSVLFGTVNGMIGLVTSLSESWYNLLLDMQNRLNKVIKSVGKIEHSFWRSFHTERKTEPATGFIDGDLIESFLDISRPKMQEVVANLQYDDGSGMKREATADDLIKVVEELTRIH
Protocol: MV-4-11 cells were grown in RPMI 1640 media supplemented with 10% fetal bovine serum, streptomycin and penicillin.
Cells were cultured at approximately 10^6 cells per mL and incubated in DMSO or the indicated compound for 6-8 h. Whole cell extracts were prepared using RIPA buffer according to manufacturer's protocol (Pierce). Briefly, 3×10^6 cells were washed once in PBS, the cell pellets were resuspended in RIPA buffer and allowed to incubate for 15 minutes on ice. Cells debris was removed by centrifugation and the cleared whole cell lysates were transferred to new tubes for further analysis.
For Western blot analysis, whole cell protein extracts were separated on 4-12% SDS-polyacrylamide gels, transferred to nitrocellulose and probed with the indicated primary antibodies. Membranes were subsequently washed and probed with the appropriate IRDye secondary antibodies (LI-COR). The signal was detected using the Odyssey Imaging System (LI-COR).
The following antibodies were used in these studies: Anti-eRF3/GSPT1: Abcam, ab126090 (Cambridge, Mass.); Anti-Ikaros: Abcam, ab191394 (Cambridge, Mass.); Anti-CK1α: Abcam, ab108296 (Cambridge, Mass.); Anti-CDK9: Santa Cruz Biotechnology, sc13130 (Dallas, Tex.); Anti-CDK16: Millipore Sigma, HPA001366 (St. Louis, Mo.); 3-actin (8H10comD10) mouse monoclonal antibody: Cell Signaling Technology, #3700 (Danvers, Mass.); IRDye 680RD Goat anti-rabbit antibody: LI-COR, 926-68071 (Lincoln, Nebr.); IRDye 800CW Goat anti-mouse antibody: LI-COR, 926-32210 (Lincoln, Nebr.).
CDK9 activities are shown in Table 4 at two different concentrations. CDK16 activities are shown in Table 5 at two different concentrations. In each of Tables 1-5, the % degradation values are reported as “A”, “B”, “C”, or “D”. “A” represents a % degradation value of less than 25% (value <25%). “B” represents a % degradation value of equal to or more than 25% and less than 50% (25%≤value<50%). “C” represents a % degradation value of equal to or more than 50% and less than 75% (50%≤value<75%). “D” represents a % degradation value of equal to or more than 75% (value ≥75%).

[6] = tested on: IL-1β; experiment: IL-1β inhibition assay, LPS-induced PBMCs / CD14+ monocytes (Meso Scale); conditions: 1 h pretreatment, 100 ng/mL LPS 18-24 h
How it was run: as §1

[7] = target: T2, GSPT1 (Homo sapiens, UniProt P15170+Q96SW2); experiment: GSPT1 degradation assay (Western blot, MV-4-11 cells); conditions: MV4-11, 6-8 h
T2 construct: Whole cell extracts were prepared using RIPA buffer; endogenous in cells; host or cells: MV-4-11
T2 sequence (P15170 whole entry): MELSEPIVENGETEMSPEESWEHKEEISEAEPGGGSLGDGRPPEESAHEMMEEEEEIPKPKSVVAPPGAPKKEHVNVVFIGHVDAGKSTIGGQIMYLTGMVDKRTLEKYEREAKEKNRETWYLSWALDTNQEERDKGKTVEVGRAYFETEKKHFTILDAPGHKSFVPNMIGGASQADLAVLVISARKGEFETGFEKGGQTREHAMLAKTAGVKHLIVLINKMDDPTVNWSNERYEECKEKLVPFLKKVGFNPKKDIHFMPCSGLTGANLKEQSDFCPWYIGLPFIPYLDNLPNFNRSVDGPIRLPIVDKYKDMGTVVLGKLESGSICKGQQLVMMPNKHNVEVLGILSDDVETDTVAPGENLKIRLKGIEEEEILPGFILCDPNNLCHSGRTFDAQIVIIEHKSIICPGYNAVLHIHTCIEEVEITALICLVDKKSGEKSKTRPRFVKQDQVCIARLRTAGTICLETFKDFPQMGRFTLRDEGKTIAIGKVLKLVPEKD
T2 sequence (Q96SW2 whole entry): as the sequence (Q96SW2 whole entry) above
T2 sequence (Q16531 whole entry partner): as the sequence (Q16531 whole entry partner) above
How it was run: (§2)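 Cells at about 10^6 per mL were exposed to compound or DMSO for 6-8 h, lysed in RIPA buffer, and analysed by SDS-PAGE Western blot with IRDye secondary antibodies on an Odyssey imager. Values are % degradation binned as A <25%, B 25-<50%, C 50-<75%, D ≥75%.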

[8] = target: T3, IKAROS (Homo sapiens, UniProt Q13422+Q96SW2); experiment: IKAROS degradation assay (Western blot, MV-4-11 cells); conditions: MV4-11, 6-8 h
T3 construct: endogenous in cells; host or cells: MV-4-11
T3 sequence (Q13422 whole entry): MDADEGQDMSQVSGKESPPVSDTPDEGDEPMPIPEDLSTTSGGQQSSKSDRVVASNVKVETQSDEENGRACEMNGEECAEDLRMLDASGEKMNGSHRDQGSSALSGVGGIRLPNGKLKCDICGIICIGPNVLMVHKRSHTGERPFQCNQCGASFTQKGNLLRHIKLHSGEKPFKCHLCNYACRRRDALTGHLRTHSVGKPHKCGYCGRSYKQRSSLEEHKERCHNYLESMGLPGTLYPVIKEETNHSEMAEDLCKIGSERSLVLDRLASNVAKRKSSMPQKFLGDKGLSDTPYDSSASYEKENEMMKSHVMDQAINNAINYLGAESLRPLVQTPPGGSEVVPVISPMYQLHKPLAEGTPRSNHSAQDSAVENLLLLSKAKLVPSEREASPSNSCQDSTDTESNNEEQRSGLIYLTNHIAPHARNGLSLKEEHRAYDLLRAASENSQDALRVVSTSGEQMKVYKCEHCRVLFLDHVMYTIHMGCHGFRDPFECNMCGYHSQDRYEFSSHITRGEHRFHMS
T3 sequence (Q96SW2 whole entry): as the sequence (Q96SW2 whole entry) above
T3 sequence (Q16531 whole entry partner): as the sequence (Q16531 whole entry partner) above
How it was run: as §2

Structure (SMILES) | Dmax at 1 µM [5] [%] | Dmax at 1 µM [7] [%] | Dmax at 1 µM [8] [%] | inhibition at 1 µM [1] [%] | inhibition at 1 µM [2] [%] | viability at 1 µM [3] [%] | fold induction at 1 µM [4] | inhibition at 1 µM [6] [%]
Cn1ncc(-c2nc(N[C@H]3CC[C@H](NC(=O)CCCCCCNCC(=O)Nc4cccc5c4CN([C@H]4CCCC(=O)NC4=O)C5=O)CC3)ncc2Cl)c1CC1CC1 [Compound 9, N-((1r,4r)-4-((5-chloro-4-(5-(cyclopropylmethyl)-1-methyl-1H-pyrazol-4-yl)pyrimidin-2-yl)amino)cyclohexyl)-7-((2-((2-((S)-2,7-dioxoazepan-3-yl)-1-oxoisoindolin-4-yl)amino)-2-oxoethyl)amino)heptanamide] | < 25 | 50 to 75 |  | 50 to 70 | < 50 | < 50 | 0.5 to 1 | 50 to 70
Cn1ncc(-c2nc(N[C@H]3CC[C@H](NCC(=O)NCCOCCOCCOCCNc4cccc5c4CN(C4CCC(=O)NC4=O)C5=O)CC3)ncc2F)c1CC1CC1 (stereo partly shown) [Compound 56, 2-(((1r,4r)-4-((4-(5-(cyclopropylmethyl)-1-methyl-1H-pyrazol-4-yl)-5-fluoropyrimidin-2-yl)amino)cyclohexyl)amino)-N-(2-(2-(2-(2-((2-(2,6-dioxopiperidin-3-yl)-1-oxoisoindolin-4-yl)amino)ethoxy)ethoxy)ethoxy)ethyl)acetamide] | 25 to 50 |  | 50 to 75 | > 90 | > 90 | > 90 | ≤ 0.1 | > 90
Cn1ncc(-c2ncnc(N[C@H]3CC[C@H](NCCCCCCCCNC(=O)NCc4cc5c(s4)C(=O)N(C4CCC(=O)NC4=O)C5)CC3)n2)c1CC1CC1 (stereo partly shown) [Compound 65, 1-(8-(((1r,4r)-4-((4-(5-(cyclopropylmethyl)-1-methyl-1H-pyrazol-4-yl)-1,3,5-triazin-2-yl)amino)cyclohexyl)amino)octyl)-3-((5-(2,6-dioxopiperidin-3-yl)-6-oxo-5,6-dihydro-4H-thieno[2,3-c]pyrrol-2-yl)methyl)urea] | 50 to 75 | 25 to 50 |  | < 50 | < 50 | < 50 | 0.5 to 1 | < 50

Second part, led by results:

Dmax at 1 µM [5] [%] | Dmax at 1 µM [7] [%] | Dmax at 1 µM [8] [%] | Structure (SMILES) | inhibition at 1 µM [1] [%] | inhibition at 1 µM [2] [%] | viability at 1 µM [3] [%] | fold induction at 1 µM [4] | inhibition at 1 µM [6] [%]
25 to 50 |  |  | CC(C)(C)c1cnc(CSc2cnc(NC(=O)C3CCN(CC(=O)NCCOCCNC(=O)NCc4cc5c(s4)C(=O)N(C4CCC(=O)NC4=O)C5)CC3)s2)o1 (stereo not shown) [Compound 3, 3-{8-Oxo-3-[(3-{2-[2-(2-{4-[(5-{[5-(tert-butyl)-1,3-oxazol-2-yl]methylthio}-1,3-thiazol-2-ylamino)carbonyl]-1-piperidyl}acetylamino)ethoxy]ethyl}ureido)methyl]-2-thia-7-azabicyclo[3.3.0]octa-1(5),3-dien-7-yl}-2,6-piperidinedione] | 70 to 90 | > 90 | > 90 | 0.1 to 0.5 | > 90
≥ 75 |  | < 25 | CC(C)(C)c1cnc(CSc2cnc(NC(=O)C3CCN(CCOCCOCCOCCOCCNCC(=O)NCc4scc5c4CN(C4CCC(=O)NC4=O)C5=O)CC3)s2)o1 (stereo not shown) [Compound 58, N-(5-(((5-(tert-butyl)oxazol-2-yl)methyl)thio)thiazol-2-yl)-1-(1-(5-(2,6-dioxopiperidin-3-yl)-4-oxo-5,6-dihydro-4H-thieno[3,4-c]pyrrol-1-yl)-3-oxo-8,11,14,17-tetraoxa-2,5-diazanonadecan-19-yl)piperidine-4-carboxamide] | < 50 | 70 to 90 | 50 to 70 | 0.5 to 1 | > 90
